Columns and labels:
[1] = biological target: T1, recombinant mouse PREP (rmPREP) (Mus musculus, UniProt Q9QUR6); assay: PREP enzymatic activity assay; assay type: biochemical; conditions: Z-Gly-Pro-AMC substrate
T1 construct: purchased R&S system (so in the source)
Experimental: 7-Amino-4-Methylcoumarin (AMC) release was detected by measuring fluorescence at Ex/Em 380/460 nm using a Multifunction Microplate Reader (Synergy 4, Biotek). All measurements were carried out in triplicate.

[2] = biological target: T2, recombinant mouse DPPIV (rmDPPIV) (Mus musculus, UniProt P28843); assay: DPPIV enzymatic activity assay; assay type: biochemical; conditions: H-Gly-Pro-pNA substrate
T2 construct: purchased R&S system (so in the source)
T2 sequence (P28843 whole entry): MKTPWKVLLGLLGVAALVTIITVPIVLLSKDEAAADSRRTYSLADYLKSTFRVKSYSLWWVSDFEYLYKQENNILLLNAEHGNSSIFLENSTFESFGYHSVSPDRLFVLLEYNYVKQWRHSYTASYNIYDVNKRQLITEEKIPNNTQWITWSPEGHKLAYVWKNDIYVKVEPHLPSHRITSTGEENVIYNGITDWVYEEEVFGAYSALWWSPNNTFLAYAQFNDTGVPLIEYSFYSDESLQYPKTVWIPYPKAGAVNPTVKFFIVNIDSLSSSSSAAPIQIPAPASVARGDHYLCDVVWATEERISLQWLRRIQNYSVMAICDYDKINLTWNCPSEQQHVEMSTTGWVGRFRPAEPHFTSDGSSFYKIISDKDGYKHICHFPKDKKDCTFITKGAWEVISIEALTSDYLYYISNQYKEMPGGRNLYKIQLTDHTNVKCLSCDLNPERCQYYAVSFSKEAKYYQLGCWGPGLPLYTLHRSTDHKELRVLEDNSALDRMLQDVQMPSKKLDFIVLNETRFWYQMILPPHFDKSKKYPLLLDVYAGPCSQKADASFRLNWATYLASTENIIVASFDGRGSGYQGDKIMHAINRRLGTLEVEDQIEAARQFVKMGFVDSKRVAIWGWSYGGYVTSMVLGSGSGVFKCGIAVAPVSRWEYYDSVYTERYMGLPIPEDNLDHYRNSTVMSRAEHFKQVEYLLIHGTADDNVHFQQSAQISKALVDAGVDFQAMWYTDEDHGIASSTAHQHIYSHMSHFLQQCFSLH

[3] = biological target: T3, mouse plasma DPPIV (Mus musculus, UniProt P28843); assay: DPPIV enzymatic activity in mouse plasma; assay type: biochemical; conditions: C57BL/6 mouse plasma; H-Gly-Pro-AMC substrate
T3 construct: from tissue; host or cells: mouse plasma (C57BL/6, EDTA)
T3 sequence (P28843 37-760 limits assumed): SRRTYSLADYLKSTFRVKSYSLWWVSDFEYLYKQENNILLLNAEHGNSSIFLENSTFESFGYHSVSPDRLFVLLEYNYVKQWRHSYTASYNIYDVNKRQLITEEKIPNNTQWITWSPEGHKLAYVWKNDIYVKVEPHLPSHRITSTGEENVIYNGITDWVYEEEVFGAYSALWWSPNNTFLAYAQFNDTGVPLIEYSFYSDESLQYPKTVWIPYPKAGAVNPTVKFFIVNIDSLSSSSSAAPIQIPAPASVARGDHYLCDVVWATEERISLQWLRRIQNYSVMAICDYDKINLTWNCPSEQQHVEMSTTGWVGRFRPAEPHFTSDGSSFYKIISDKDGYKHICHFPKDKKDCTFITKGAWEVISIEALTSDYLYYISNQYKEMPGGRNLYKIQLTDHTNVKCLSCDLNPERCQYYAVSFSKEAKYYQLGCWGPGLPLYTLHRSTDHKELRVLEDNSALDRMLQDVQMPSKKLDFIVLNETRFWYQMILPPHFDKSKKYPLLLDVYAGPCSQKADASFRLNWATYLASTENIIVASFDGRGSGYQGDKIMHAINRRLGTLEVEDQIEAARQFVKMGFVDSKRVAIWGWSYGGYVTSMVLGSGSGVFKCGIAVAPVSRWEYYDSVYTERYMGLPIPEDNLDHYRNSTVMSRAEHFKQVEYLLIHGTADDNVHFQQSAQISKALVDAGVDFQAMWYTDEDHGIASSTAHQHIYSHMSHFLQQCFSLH
Experimental: Approximately 500 μL of whole blood from one C57BL/6 mouse was harvested into BD Microtainer® tubes (K2) EDTA (#365974, Becton Dickinson and Co.) via terminal cardiac puncture. The blood sample was immediately centrifuged at approximately 9000 g at 4° C. for 5 minutes. Plasma was separated and stored at −80° C. in aliquots of 300 μL. To assay baseline DPPIV enzymatic exopeptidase activity, 5 μL of thawed, mouse plasma was diluted (1:5) in buffer (100 mM Tris-HCl, 400 mM NaCl, 50 mM salicylic acid, 1 mM EDTA, pH 7.5) and mixed with 35 µL of the same buffer before being pre-incubated with different concentrations of 10 μL of test compounds or DMSO vehicle for 15 minutes at 37° C. in 96-well black plates (Nunc, #237108). After pre-incubation, 50 μL of 200 μM dipeptide substrate H-Gly-Pro-AMC (Bachem, #L-1225) was added to the mixture. The assay was performed for 1 hour at 37° C. 7-Amino-4-Methylcoumarin (AMC) release was detected measuring fluorescence at an excitation wavelength of 360 nm and an emission wavelength of 460 nm using a Multifunction Microplate Reader (Synergy 4, Biotek). All measurements were carried out at least in duplicate.

[4] = Intravenous and oral bioavailability in mice; assay type: in vivo
Experimental: The pharmacokinetic properties of exemplary test compounds were assayed after administration of an intravenous (IV) 2 mg/kg or oral (PO) 10 mg/kg single dose in mice. Exemplary test compounds were formulated at 0.4 and 1 mg/ml in a vehicle containing Poly-Ethylene Glycol 200 (PEG200; Cat. No. #P3015, Sigma Aldrich) and distilled water (dH2O) (50/50, v/v) as dosing solutions for intravenous and oral administration, respectively.
C57BL/6j and Balb/c mice, approximately 8-10 weeks old, were obtained from the vivarium Fundación Ciencia & Vida Chile (Santiago, Chile) and maintained in a temperature-controlled room with 12/12 hr light/dark schedule with food and water ad libitum. Animals were acclimated for a minimum period of 4 days upon arrival at the testing facility.
On the day of study, mice were weighed and identified by marking the tail with numbers using a non-toxic permanent marker for designation into the experimental groups (n=3 per group). Each mouse in the IV dosing groups received a systemic bolus of 2 mg/kg dosing solution via the caudal vein.
Non-dosed mice were used to collect samples of zero time points. […] Blood samples were centrifuged immediately at 9,000 g at 4° C. for 5 min and the plasma was separated.
The plasma samples were analyzed by QTRAP 4500 triple quadrupole mass spectrometer (Applied Biosystems SCIEX) in positive or negative ion mode depending on the tested compound and interfaced with an ekspert ultraLC 100-XL UPLC System (eksigent) to determine the concentration of the exemplary test compound. […] The precipitated samples were centrifuged at 6,100 g for 30 min at 4° C. Following centrifugation, an aliquot of each supernatant was transferred into a clean sample vial and diluted with two volumes of aqueous mobile phase (0.2% formic acid in water). Samples were injected onto a reverse phase analytical column (YMC Triart C18; 2.0×50 mm; 1.9 μm; YMC CO) and eluted with a gradient of 0.1 or 0.2% formic acid in Acetonitrile. Test compound and internal standard were monitored by a multiple reaction monitoring (MRM) experiment using Analyst software (v1.6.2, Applied Biosystems SCIEX). Quantitation was conducted using MultiQuant software (v2.1, Applied Biosystems SCIEX) and the resulting calibration curve was fitted with a linear or quadratic regression and 1/x weighting.
IV and PO PK parameters were calculated from the concentration-time data using Phoenix WinNonlin software (v6.4, Certara, Princeton, N.J.) by noncompartmental analysis. Area under the concentration-time curve (AUClast) was estimated using a log-linear trapezoidal method, from the dosing time to the last measurable concentration.

[5] = biological target: T4, recombinant human FAPα (rhFAPα) (Homo sapiens, UniProt Q12884); assay: FAPα enzymatic exopeptidase (dipeptidase) activity assay; assay type: biochemical; conditions: 1 μM test compound; Z-Gly-Pro-AMC substrate
T4 construct: purchased R&S system (so in the source)
T4 sequence (Q12884 1-760): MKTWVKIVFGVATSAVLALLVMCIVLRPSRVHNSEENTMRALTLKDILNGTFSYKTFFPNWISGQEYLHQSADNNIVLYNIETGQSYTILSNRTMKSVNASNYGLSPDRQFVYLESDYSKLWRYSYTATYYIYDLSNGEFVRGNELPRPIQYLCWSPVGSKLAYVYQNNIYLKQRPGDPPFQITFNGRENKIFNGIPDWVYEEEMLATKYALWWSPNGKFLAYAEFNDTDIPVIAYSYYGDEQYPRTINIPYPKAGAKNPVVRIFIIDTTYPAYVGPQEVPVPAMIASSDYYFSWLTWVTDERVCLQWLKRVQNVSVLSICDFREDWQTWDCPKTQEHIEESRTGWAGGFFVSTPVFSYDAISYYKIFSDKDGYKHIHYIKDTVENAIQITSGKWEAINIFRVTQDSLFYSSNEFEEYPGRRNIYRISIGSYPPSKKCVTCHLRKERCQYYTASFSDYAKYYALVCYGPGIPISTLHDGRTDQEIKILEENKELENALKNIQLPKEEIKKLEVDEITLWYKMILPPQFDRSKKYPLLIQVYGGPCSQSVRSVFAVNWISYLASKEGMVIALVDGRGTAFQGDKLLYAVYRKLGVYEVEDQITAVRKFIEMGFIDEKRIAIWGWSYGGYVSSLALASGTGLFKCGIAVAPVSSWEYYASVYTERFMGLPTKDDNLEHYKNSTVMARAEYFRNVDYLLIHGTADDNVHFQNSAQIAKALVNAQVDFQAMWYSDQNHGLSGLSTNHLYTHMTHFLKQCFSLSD

[6] = biological target: T5, recombinant mouse FAPα (rmFAPα) (Mus musculus, UniProt P97321); assay: as above; assay type: biochemical; conditions: 1 μM test compound; Z-Gly-Pro-AMC substrate
T5 construct: purchased R&S system (so in the source)
T5 sequence (P97321 1-761): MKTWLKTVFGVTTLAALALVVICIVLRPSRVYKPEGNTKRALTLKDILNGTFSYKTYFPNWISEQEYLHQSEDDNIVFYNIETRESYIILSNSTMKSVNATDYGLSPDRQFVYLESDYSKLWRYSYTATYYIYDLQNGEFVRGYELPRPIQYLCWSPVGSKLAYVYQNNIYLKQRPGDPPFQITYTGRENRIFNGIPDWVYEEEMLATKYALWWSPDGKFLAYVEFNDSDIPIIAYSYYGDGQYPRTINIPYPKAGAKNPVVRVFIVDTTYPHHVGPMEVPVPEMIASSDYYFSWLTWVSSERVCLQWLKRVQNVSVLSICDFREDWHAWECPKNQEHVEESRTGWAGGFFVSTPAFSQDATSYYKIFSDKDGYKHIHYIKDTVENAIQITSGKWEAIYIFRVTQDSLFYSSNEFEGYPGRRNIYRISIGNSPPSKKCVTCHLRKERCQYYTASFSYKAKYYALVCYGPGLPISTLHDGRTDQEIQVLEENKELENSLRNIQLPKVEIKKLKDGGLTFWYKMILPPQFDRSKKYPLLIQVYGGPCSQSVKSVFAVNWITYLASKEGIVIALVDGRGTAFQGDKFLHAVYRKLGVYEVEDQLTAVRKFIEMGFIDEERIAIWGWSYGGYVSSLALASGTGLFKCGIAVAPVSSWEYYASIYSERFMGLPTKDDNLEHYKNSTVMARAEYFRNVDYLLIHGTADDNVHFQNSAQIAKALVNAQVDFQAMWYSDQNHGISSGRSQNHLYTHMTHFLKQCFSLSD
Experimental: FAPα enzymatic exopeptidase (dipeptidase) activity assay. […] 7-Amino-4-Methylcoumarin (AMC) release was detected by measuring fluorescence at Ex/Em 380/460 nm using a Multifunction Microplate Reader (Synergy 4, Biotek). All measurements were carried out in duplicate. […] For the calculations, the average measurements from reactions containing only vehicle and substrate, without enzyme, were used as a blank and were subtracted from the rest of the measurements. Percent inhibition was calculated using the average measurements from reactions containing vehicle, enzyme, and substrate as the maximum of enzymatic activity. Measurements were performed as a single point.

[7] = tested on: a variety of cancers; conditions: Phase II, combination with standard cytotoxic chemotherapy; cited from earlier work
[8] = standing in pH 7.8; cyclization; cited from earlier work

T1 sequence (Q9QUR6 whole entry): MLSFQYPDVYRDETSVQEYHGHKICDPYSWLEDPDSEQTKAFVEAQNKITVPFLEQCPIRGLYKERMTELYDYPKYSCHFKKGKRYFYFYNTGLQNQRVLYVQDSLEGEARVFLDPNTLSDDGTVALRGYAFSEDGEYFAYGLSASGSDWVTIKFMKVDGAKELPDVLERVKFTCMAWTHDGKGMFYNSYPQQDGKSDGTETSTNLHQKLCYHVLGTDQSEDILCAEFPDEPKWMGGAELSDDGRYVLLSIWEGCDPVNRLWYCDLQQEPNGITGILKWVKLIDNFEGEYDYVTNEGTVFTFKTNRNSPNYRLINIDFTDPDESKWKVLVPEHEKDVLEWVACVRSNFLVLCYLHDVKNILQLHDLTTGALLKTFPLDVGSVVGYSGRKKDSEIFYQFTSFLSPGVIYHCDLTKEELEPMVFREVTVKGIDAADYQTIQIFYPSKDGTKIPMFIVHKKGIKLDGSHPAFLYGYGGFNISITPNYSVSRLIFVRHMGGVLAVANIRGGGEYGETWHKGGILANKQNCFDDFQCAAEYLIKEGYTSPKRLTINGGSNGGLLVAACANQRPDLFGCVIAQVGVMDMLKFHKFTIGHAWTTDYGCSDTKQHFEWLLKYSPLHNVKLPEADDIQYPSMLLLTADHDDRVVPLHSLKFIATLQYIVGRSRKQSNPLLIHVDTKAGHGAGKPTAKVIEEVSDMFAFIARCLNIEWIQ

| SMILES | IC50 [1] | IC50 [2] | IC50 [3] | F (bioavailability) ([4]; PO 10 mg/kg vs IV 2 mg/kg) | AUClast ([4]; oral (PO) 10 mg/kg single dose, plasma) | rhFAPα (% exo inh @ 1 μM) [5] | rmFAPα (% exo inh @ 1 μM) [6] | clinical efficacy endpoints [7] | stability of protease inhibitory activity [8] |
| --- | --- | --- | --- | --- | --- | --- | --- | --- | --- |
| N#CC1CC(F)(F)CN1C(=O)CNC(=O)c1ccnc2ccccc12 (stereo not drawn) [Ref. Comp., reference compound] | > 10 µM | > 10 µM | > 10 µM | 39.7% | 1120 ng·h/mL | +++ (+++ refers to > 50% inhibition at 1 μM test compound) | +++ (+++ refers to > 50% inhibition at 1 μM test compound) | – | – |
| CC(C)[C@H](N)C(=O)N1CCC[C@H]1B(O)O [Val-boroPro] | – | – | – | – | – | – | – | endpoints for efficacy were not met | rapidly loses protease inhibitory activity |

— US11780821B2, “Inhibitors of fibroblast activation protein” (Praxis Biotech LLC, priority 2017, dated 2023)
